From US20170119851A1, “METHODS OF TREATING ANOREXIA” (NOVARTIS AG, priority 2014, published 2017)
No end group written: not given here.

Key:
MC3R and MC4R = conditions: Jackson et al., Biochemistry 41, 7565-7572; cited from earlier work
MC4R [1] = target: T1, MC4R (Homo sapiens, UniProt P32245); conditions: Jackson et al., Biochemistry 41, 7565-7572; cited from earlier work
T1 construct: expressed in transfected cells; host or cells: HEK293

MC3R [2] = target: T2, MC3R (Homo sapiens, UniProt P41968); conditions: Jackson et al., Biochemistry 41, 7565-7572; cited from earlier work
T2 construct: expressed in transfected cells; host or cells: HEK293

MC3R [3] = target: T2, MC3R; assay: MC3 cAMP assay, HEK293/MC3R stable cell line (antagonist protocol); assay type: cell-based; conditions: HEK293/MC3R cells, antagonist protocol against NDP-α-MSH EC80
Method: Cells: HEK293/MC3R stable cell line Complete medium: DMEM/F12 1:1 (Gibco, Cat. No. 11039) • 10% FBS (Heat inactivated, Gibco, Cat. No. 10082)× • 200 μg/mL Geneticin (Gibco, Cat. No. 10131) • 2 mM L-glutamine (GIBCO, Cat No. 25030) Flask: 150 cm^2 tissue culture treated flask (Corning, Cat. No. 430825).
• I. Aspirate conditioned medium • II. Wash with 2.5 mL of DPBS (Gibco, Cat. No. 14190) • III. Add 2 mL of 0.25% Trypsin-EDTA (Gibco, Cat. No. 25200-056) • IV. Leave the flask for few minutes in incubator, tap the flask a few time to detach cells. • V. Add 10 mL of the complete medium to stop Trypsin-EDTA treatment and mix it well by pipetting softly a few times to re-suspend clumping cells • VI. Transfer 1.5 ml of cells into a new 150 cm flask containing 20 ml of complete media • VII. Transfer the remaining suspension into a 50 mL centrifuge tube • VIII. Spin down at 1200 rpm for 4 mins. Aspirate supernatant • IX. Add 6 mL of the assay buffer to the tube and re-suspend the cells by softly pipetting • X. Transfer 0.5 mL of the suspension into a sample vial for Vi-cell and add another 0.5 ml of PBS. • XI. Count cell number by using a Vi-cell *Record cell density and viability every time • i. Plate cells at 4K/well in 10 ul/well of assay buffer containing IBMX. • ii. Leave the plate in incubator for ˜30 mins before assay is started on suspension cells. […]

MC4R [4] = target: T1, MC4R; assay: HTRF cAMP assay, HEK293/MC4R stable cell line; assay type: cell-based; conditions: HEK293/MC4R cells, titration against NDP-aMSH
Method: A) HTRF cAMP Assay Protocol:
• Flash spindown the 384 well plate at 1200 RPM • Incubated the cells for 15 minutes at an ambient temperature • Add 10 μL of the following reagents into each well based on your sample alignment
• Flash spindown the 384 well plate at 1200 RPM • Incubate the cells for an additional 30 minutes at an ambient temperature • *This incubation time is not so strict. +/−5 min should be OK according to assay development data. • Add 10 μL of cAMP-d2 (diluted 1:4 in the lysis buffer provided in the kit) • *Important!! For Negative control, not cAMP-d2, but just the lysis buffer • Add 10 μL of anti-cAMP Cryptate (diluted 1:4 in the lysis buffer provided in the kit) • Flash spindown at 1200 RPM. • Incubate the assay plate for 45-60 min at an ambient temperature. • Transfer […] of each sample to a tissue culture treated white polystyrene 384-well assay plate (Corning, Cat. No. 3572) • Flash spindown at 1200 RPM. • Measure the fluorescence with a Molecular device M5 or M5e with the following setting.

in vivo [5] = conditions: male, Sprague-Dawley, rat, plasma, iv, 10 nanomoles per rat
Method: C) In Vivo Assay Description:
10 nanomoles of conjugate was dissolved in 300 L of PBS (Phosphate buffered saline) to form Dosing solution. Dosing solution (300 M) was administered intravenously to male Sprague-Dawley rats via lateral tail vein (corresponding to a dose 10 nanomoles per rat). Blood was collected via tail snip at prescribed times after dosing and immediately placed on wet ice. These samples were centrifuged at 4 C, with supernatant plasma transferred to a fresh tube for analysis.
For assay, intermediates were diluted to a top standard concentration of 2500 pg/mL and then diluted 2-fold serially to 16 points including a zero dose standard in ELISA sample diluent with bovine serum albumin (BSA).
Plasma samples were diluted 10-fold and then 5-fold serially out to 31,250-fold in ELISA sample diluent with BSA.
Plates were aspirated and blocked with a milk-based blocker at 90 uL/well for 2 hours at RT. All further incubations were carried out at 30 uL/well. Plates were aspirated again and samples and standards were added to the wells for 2 hours at RT. […] The plates were washed again and a HRP-labeled streptavidin reagent was added to the wells for 30 minutes at RT. Plates were washed a final time and a chemiluminescent substrate was added to all wells and plates were read immediately on a Spectramx M5 for light output.
Raw data was organized and analyzed for basic PK parameters.

C57BL mice [6] = assay: Food intake after intranasal (IN) AgRP in mice; assay type: in vivo; conditions: 57 μg AgRP in saline
Method: One day prior to treatment, 4-h food intake was measured and animals grouped to match group means of food intake. On the day of the study, food was removed at 9:00 am. […] After dosing, the mice remained in the isoflurane chamber in a supine position for 3 min before being returned to their cages. A pre-weighed amount of food was given to the animals before the dark cycle. Food weight was recorded at 4 and 24 hours post dose.
All data were analyzed using an unpaired t-test comparing saline and AgRP in saline. A p value of <0.05 or lower was taken to be statistically significant. All data were analyzed and plotted using GraphPad Prism6 software (San Diego, Calif.).

in vivo [7] = conditions: male, C57BL, mouse, plasma, 57 ug
Method: Male C57BL mice were housed one per cage with normal chow diet and housed in normal light cycle (light on 6:00-18:00).
10 min prior to the treatment, tail blood samples were taken and plasma (10 μl) was obtained. […] After being dosed, the mice remained in the isoflurane chamber for 2 min before placed back in their home cages. […] Tail blood samples were taken at 2, 5, 10, 30 min and 1, 2, 4 and 24 h post dose. Plasma samples were aliquoted and stored at −80° C. until analysis.

C57BL mice [8] = assay: Food intake after subcutaneous (SC) AgRP in mice; assay type: in vivo; conditions: 57 μg AgRP
Method: One day prior to treatment, 4-h food intake was measured and animals grouped to match group means of food intake. On the day of the study, animals were dosed via SC injection between 10:30 to 11:00 am. Pre-weighed food was provided to the mice prior to the dark cycle (11:00 am). At 4 and 24 h post dose food intake was measured.
All data were analyzed using an unpaired t-test comparing PBS and AgRP in saline. A p value of <0.05 or lower was taken to be statistically significant. All data were analyzed and plotted using GraphPad Prism6 software (San Diego, Calif.).

[9] = tested on: lean Sprague Dawley (SD) rats; assay: Food intake after intranasal AgRP in lean rats; assay type: in vivo
Method: The purpose of the following study was to determine if intranasal—(IN) administered AgRP would stimulate food intake in lean Sprague Dawley (SD) rats.
8-12 week-old male SD rats were housed one per cage with a standard chow diet and normal light cycle.
One and two days prior to dosing, 24 h food intake and body weight were measured. Animals were grouped based on body weight and food intake. […] Animals were actively sniffing when compound was administered. After dosing, rats were returned to their home cages. A pre-weighed amount of food was given to the animals after dosing. Food weight was recorded at 4 and 24 hours post dose.
All data were analyzed using an unpaired t-test comparing saline and AgRP. A p value of <0.05 or lower was taken to be statistically significant. All data were analyzed and plotted using GraphPad Prism6 software (San Diego, Calif.).

T1 sequence (P32245 whole entry, species assumed): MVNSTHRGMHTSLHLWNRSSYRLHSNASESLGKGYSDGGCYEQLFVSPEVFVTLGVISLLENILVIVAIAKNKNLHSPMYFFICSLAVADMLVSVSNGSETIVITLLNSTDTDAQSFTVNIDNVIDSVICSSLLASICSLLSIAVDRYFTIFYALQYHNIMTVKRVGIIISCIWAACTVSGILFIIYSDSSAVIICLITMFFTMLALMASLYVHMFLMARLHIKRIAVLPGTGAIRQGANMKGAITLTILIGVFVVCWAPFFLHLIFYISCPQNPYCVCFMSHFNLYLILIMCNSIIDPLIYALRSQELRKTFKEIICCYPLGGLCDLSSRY
T2 sequence (P41968 whole entry, species assumed): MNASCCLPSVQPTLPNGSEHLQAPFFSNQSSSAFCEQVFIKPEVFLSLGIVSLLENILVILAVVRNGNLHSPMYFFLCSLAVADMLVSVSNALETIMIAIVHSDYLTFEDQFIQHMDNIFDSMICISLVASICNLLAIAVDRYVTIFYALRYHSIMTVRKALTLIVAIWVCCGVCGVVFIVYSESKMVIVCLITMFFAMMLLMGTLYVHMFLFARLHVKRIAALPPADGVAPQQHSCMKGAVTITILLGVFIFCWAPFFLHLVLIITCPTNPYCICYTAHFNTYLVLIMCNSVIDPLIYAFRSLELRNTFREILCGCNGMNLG

For “AgRP (87-120): shorter biologically active fragment of AgRP described in Jackson et al. (CVRLHESCLGQQVPCCDPCATCYCRFFNAFCYCR; also: disulfide pairing of this fragment not given here, 9 Cys (C105 partner C129 absent))”, the “inverse agonism compared with AgRP(83-132)” value (MC3R and MC4R) is listed as “equivalent inverse agonism”, the “MC4R affinity compared with AgRP(83-132)” value (MC4R [1]) is listed as “approximately the same” and the “MC3R affinity compared with AgRP(83-132)” value (MC3R [2]) is listed as “approximately the same”.

In the case of `CCCCCCCCCCCC(CCCCCCCCCCC(=O)O)(C(=O)O)C(=O)NCCOCCOCCOCCOCCOCCOCCOCCOCCOCCOCCOCCOCCOCCOCCOCCOCCOCCOCCOCCOCCOCCOCCOCCOCCC(=O)N[C@@H](CO)C(=O)N[C@@H](CO)C(=O)N[C@@H](CCCNC(=N)N)C(=O)N[C@@H](CCCNC(=N)N)C(=O)N[C@H]1CSSC[C@@H]2NC(=O)[C@@H]3CSSC[C@@H]4NC(=O)[C@H](Cc5ccc(O)cc5)NC(=O)[C@@H]5CSSC[C@H](NC(=O)[C@H](Cc6ccc(O)cc6)NC(=O)[C@H](CSSC[C@H](NC(=O)[C@H](CO)NC(=O)[C@H](CCC(=O)O)NC(=O)[C@H](Cc6c[nH]cn6)NC(=O)[C@H](CC(C)C)NC(=O)[C@H](CCCNC(=N)N)NC(=O)[C@H](C(C)C)NC1=O)C(=O)N[C@@H](CC(C)C)C(=O)NCC(=O)N[C@@H](CCC(N)=O)C(=O)N[C@@H](CCC(N)=O)C(=O)N[C@@H](C(C)C)C(=O)N1CCC[C@H]1C(=O)N3)NC(=O)[C@H]([C@@H](C)O)NC(=O)[C@H](C)NC(=O)[C@H](CSSC[C@@H](C(=O)N[C@@H](CO)C(=O)N[C@@H](CCCNC(=N)N)C(=O)N[C@H](C(=O)O)[C@@H](C)O)NC(=O)[C@@H]1CCCN1C(=O)[C@H](CC(N)=O)NC(=O)[C@H](CCSC)NC(=O)[C@H](C)NC(=O)[C@H]([C@@H](C)O)NC(=O)CNC(=O)[C@H](CC(C)C)NC(=O)[C@H](CCCCN)NC(=O)[C@H](CCCNC(=N)N)NC4=O)NC(=O)[C@@H]1CCCN1C(=O)[C@H](CC(=O)O)NC2=O)C(=O)N[C@@H](CCCNC(=N)N)C(=O)N[C@@H](Cc1ccccc1)C(=O)N[C@@H](Cc1ccccc1)C(=O)N[C@@H](CC(N)=O)C(=O)N[C@@H](C)C(=O)N[C@@H](Cc1ccccc1)C(=O)N5` (some centres unmarked) [Example 5A], the EC50 (MC3R [3]) is reported as 7 nM, the EC50 (MC4R [4]) is reported as 18 nM and the half-life (in vivo [5]) is reported as 20 h.

In the case of `CSCC[C@@H]1NC(=O)[C@H](C)NC(=O)[C@H]([C@@H](C)O)NC(=O)CNC(=O)[C@H](CC(C)C)NC(=O)[C@H](CCCCN)NC(=O)[C@H](CCCNC(=N)N)NC(=O)[C@@H]2CSSC[C@@H]3NC(=O)[C@@H]4CCCN4C(=O)[C@H](C(C)C)NC(=O)[C@H](CCC(N)=O)NC(=O)[C@H](CCC(N)=O)NC(=O)CNC(=O)[C@H](CC(C)C)NC(=O)[C@@H]4CSSC[C@H](NC(=O)[C@H]([C@@H](C)O)NC(=O)[C@H](C)NC(=O)[C@H](CSSC[C@@H](C(=O)N[C@@H](CO)C(=O)N[C@@H](CCCNC(=N)N)C(=O)N[C@H](C(=O)O)[C@@H](C)O)NC(=O)[C@@H]5CCCN5C(=O)[C@H](CC(N)=O)NC1=O)NC(=O)[C@@H]1CCCN1C(=O)[C@H](CC(=O)O)NC(=O)[C@H](CSSC[C@H](NC(=O)[C@H](CCCNC(=N)N)NC(=O)[C@H](CCCNC(=N)N)NC(=O)[C@H](CO)NC(=O)[C@@H](N)CO)C(=O)N[C@@H](C(C)C)C(=O)N[C@@H](CCCNC(=N)N)C(=O)N[C@@H](CC(C)C)C(=O)N[C@@H](Cc1c[nH]cn1)C(=O)N[C@@H](CCC(=O)O)C(=O)N[C@@H](CO)C(=O)N4)NC3=O)C(=O)N[C@@H](Cc1ccc(O)cc1)C(=O)N[C@H]1CSSC[C@H](NC(=O)[C@H](Cc3ccccc3)NC(=O)[C@H](C)NC(=O)[C@H](CC(N)=O)NC(=O)[C@H](Cc3ccccc3)NC(=O)[C@H](Cc3ccccc3)NC(=O)[C@H](CCCNC(=N)N)NC1=O)C(=O)N[C@@H](Cc1ccc(O)cc1)C(=O)N2` [AgRP, Agouti-Related Peptide], the “food intake vs saline (unpaired t-test)” value (C57BL mice [6]; 4 h post dose) is reported as “significant effect”, the “food intake vs saline (unpaired t-test)” value (C57BL mice [6]; 24 h post dose) is reported as “significant effect” and the Cmax (in vivo [7]; other: intranasal (IN)) is reported as 97.6 ng/mL. For the same compound, the Tmax (in vivo [7]; other: intranasal (IN)) was 1 h, the Cmax (in vivo [7]; sc) was 2810 ng/mL and the Tmax (in vivo [7]; sc) was 0.5 h. The “food intake vs PBS (unpaired t-test)” value (C57BL mice [8]; 4 h post dose) was “did not resulted in a significant effect”, the “food intake vs PBS (unpaired t-test)” value (C57BL mice [8]; 24 h post dose) was “did not resulted in a significant effect” and the “food intake vs saline (unpaired t-test)” value ([9]; 57 μg AgRP, 24 h post dose) was “significant increase”. For the same compound, the “food intake vs saline (unpaired t-test)” value ([9]; 171 μg AgRP, 4 h post dose) was “significant effect” and the “food intake vs saline (unpaired t-test)” value ([9]; 171 μg AgRP, 24 h post dose) was “significant increase”.

`CCCCCCCCCCCC(CCCCCCCCCCC(=O)O)(C(=O)O)C(=O)NCCOCCOCCOCCOCCOCCOCCOCCOCCOCCOCCOCCOCCOCCOCCOCCOCCOCCOCCOCCOCCOCCOCCOCCOCCC(=O)NCCCC[C@@H]1NC(=O)[C@H](CCCNC(=N)N)NC(=O)[C@@H]2CSSC[C@@H]3NC(=O)[C@@H]4CCCN4C(=O)[C@H](C(C)C)NC(=O)[C@H](CCC(N)=O)NC(=O)[C@H](CCC(N)=O)NC(=O)CNC(=O)[C@H](CC(C)C)NC(=O)[C@@H]4CSSC[C@H](NC(=O)[C@H]([C@@H](C)O)NC(=O)[C@H](C)NC(=O)[C@H](CSSC[C@@H](C(=O)N[C@@H](CO)C(=O)N[C@@H](CCCNC(=N)N)C(=O)N[C@H](C(=O)O)[C@@H](C)O)NC(=O)[C@@H]5CCCN5C(=O)[C@H](CC(N)=O)NC(=O)[C@H](CCSC)NC(=O)[C@H](C)NC(=O)[C@H]([C@@H](C)O)NC(=O)CNC(=O)[C@H](CC(C)C)NC1=O)NC(=O)[C@@H]1CCCN1C(=O)[C@H](CC(=O)O)NC(=O)[C@H](CSSC[C@H](NC(=O)[C@H](CCCNC(=N)N)NC(=O)[C@H](CCCNC(=N)N)NC(=O)[C@H](CO)NC(=O)[C@H](CO)NC(=O)CCOCCOCCOCCOCCOCCOCCOCCOCCOCCOCCOCCOCCOCCOCCOCCOCCOCCOCCOCCOCCOCCOCCOCCOCCNC(=O)C(CCCCCCCCCCC)(CCCCCCCCCCC(=O)O)C(=O)O)C(=O)N[C@@H](C(C)C)C(=O)N[C@@H](CCCNC(=N)N)C(=O)N[C@@H](CC(C)C)C(=O)N[C@@H](Cc1c[nH]cn1)C(=O)N[C@@H](CCC(=O)O)C(=O)N[C@@H](CO)C(=O)N4)NC3=O)C(=O)N[C@@H](Cc1ccc(O)cc1)C(=O)N[C@H]1CSSC[C@H](NC(=O)[C@H](Cc3ccccc3)NC(=O)[C@H](C)NC(=O)[C@H](CC(N)=O)NC(=O)[C@H](Cc3ccccc3)NC(=O)[C@H](Cc3ccccc3)NC(=O)[C@H](CCCNC(=N)N)NC1=O)C(=O)N[C@@H](Cc1ccc(O)cc1)C(=O)N2` (some centres unmarked) [Example 5B] showed an EC50 (MC3R [3]) of 65 nM, an EC50 (MC4R [4]) of 167 nM and a half-life (in vivo [5]) of 52 h.

For “AgRP(87-132): shorter biologically active fragment of AgRP described in Jackson et al.”, the “inverse agonism compared with AgRP(83-132)” value (MC3R and MC4R) is given as “equivalent inverse agonism”, the “MC4R affinity compared with AgRP(83-132)” value (MC4R [1]) is given as “approximately the same” and the “MC3R affinity compared with AgRP(83-132)” value (MC3R [2]) is given as “approximately the same”.
